Assay results reported in patent publication US8574865B2, “Methods and assays for identifying compounds that modulate protein-protein interactions” (Sanofi, priority 2007, dated 2013).
Entries after “also recorded” stand apart in the source; their conditions may differ.

Tests used:
[1] = test system: Endogenous receptor EDG in HEK293 cells; test: FLIPR and cAMP assays; conditions: HEK293 endogenous EDG receptors
ADRB2 = target: T1, ADRB2 (Homo sapiens, UniProt P07550); test: GPCR Per-Luc assay, HEK293 cells stably expressing Arr-luc234V233 and transiently transfected with ADRB2-TEV; type: cell-based; conditions: different concentrations, two hours
T1 construct: expressed in transfected cells
T1 sequence (P07550 whole entry): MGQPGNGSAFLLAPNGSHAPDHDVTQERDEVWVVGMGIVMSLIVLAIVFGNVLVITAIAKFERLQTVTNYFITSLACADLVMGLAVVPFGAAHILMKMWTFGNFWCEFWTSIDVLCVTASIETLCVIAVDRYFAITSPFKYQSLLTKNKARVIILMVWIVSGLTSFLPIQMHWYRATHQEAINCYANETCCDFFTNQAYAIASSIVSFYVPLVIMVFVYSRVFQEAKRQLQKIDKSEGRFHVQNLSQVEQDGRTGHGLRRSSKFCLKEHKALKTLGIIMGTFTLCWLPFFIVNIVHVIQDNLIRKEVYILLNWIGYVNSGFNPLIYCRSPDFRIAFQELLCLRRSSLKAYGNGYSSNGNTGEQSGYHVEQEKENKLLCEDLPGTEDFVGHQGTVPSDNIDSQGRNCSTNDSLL

V2 vasopressin receptor = target: T2, V2 vasopressin receptor (Homo sapiens, UniProt P30518); test: GPCR Per-Luc assay, HEK293 cells stably expressing Arr-luc234V233 and transfected with V2-TEV; type: cell-based; conditions: different concentrations, two hours
T2 construct: expressed in transfected cells; host or cells: HEK293 stably expressing Arr-luc234V233
T2 sequence (P30518 whole entry): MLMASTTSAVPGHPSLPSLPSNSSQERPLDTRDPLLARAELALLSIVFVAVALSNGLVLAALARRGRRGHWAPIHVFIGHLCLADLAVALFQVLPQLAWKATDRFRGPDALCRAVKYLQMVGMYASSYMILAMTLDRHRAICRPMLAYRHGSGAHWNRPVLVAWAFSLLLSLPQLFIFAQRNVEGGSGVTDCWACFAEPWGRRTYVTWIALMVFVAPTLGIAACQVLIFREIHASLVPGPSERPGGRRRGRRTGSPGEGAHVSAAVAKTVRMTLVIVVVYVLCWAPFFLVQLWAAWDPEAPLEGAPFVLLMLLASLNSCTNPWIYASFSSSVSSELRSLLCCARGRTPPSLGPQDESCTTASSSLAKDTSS
Protocol: HEK cells stably transfected with an arrestin/permuted luciferase construct were transiently transfected with a V2-TEV construct and induced with the agonist, 8AVP, arginine vasopressin (left graph).
Bright-GLO™ luciferase reagent was added to cells.

luciferase activity, compound alone (ADRB2) | Compound | signal in FLIPR and cAMP assays [1] | luciferase activity (β arrestin recruitment to V2) (V2 vasopressin receptor)
did not affect the luciferase activity | CCCCCCCCCCCCC/C=C/[C@@H](O)[C@@H](N)COP(=O)(O)O [S1P, sphingosine-1-phosphate] | did produce positive signals | –
– | CCOc1ccc2c(c1)C1(CCC(OCCN3CCOCC3)CC1)C(=O)N2S(=O)(=O)c1ccc(C(=O)NC(C)(C)C)cc1OC (stereo not drawn) [SR121463] | – | increasing levels of luminescence were observed with increasing amounts; also recorded: induced a G protein-independent, arrestin-dependent signal
